In PMC7889647 (Basic & clinical pharmacology & toxicology, 2020):

Target: hERG1a (human ether-a-go-go-related gene potassium channel, Kv11.1) (Homo sapiens, UniProt Q12809)
Assay type: cell-based

Chain of hERG1a (human ether-a-go-go-related gene potassium channel, Kv11.1) (Q12809 whole entry): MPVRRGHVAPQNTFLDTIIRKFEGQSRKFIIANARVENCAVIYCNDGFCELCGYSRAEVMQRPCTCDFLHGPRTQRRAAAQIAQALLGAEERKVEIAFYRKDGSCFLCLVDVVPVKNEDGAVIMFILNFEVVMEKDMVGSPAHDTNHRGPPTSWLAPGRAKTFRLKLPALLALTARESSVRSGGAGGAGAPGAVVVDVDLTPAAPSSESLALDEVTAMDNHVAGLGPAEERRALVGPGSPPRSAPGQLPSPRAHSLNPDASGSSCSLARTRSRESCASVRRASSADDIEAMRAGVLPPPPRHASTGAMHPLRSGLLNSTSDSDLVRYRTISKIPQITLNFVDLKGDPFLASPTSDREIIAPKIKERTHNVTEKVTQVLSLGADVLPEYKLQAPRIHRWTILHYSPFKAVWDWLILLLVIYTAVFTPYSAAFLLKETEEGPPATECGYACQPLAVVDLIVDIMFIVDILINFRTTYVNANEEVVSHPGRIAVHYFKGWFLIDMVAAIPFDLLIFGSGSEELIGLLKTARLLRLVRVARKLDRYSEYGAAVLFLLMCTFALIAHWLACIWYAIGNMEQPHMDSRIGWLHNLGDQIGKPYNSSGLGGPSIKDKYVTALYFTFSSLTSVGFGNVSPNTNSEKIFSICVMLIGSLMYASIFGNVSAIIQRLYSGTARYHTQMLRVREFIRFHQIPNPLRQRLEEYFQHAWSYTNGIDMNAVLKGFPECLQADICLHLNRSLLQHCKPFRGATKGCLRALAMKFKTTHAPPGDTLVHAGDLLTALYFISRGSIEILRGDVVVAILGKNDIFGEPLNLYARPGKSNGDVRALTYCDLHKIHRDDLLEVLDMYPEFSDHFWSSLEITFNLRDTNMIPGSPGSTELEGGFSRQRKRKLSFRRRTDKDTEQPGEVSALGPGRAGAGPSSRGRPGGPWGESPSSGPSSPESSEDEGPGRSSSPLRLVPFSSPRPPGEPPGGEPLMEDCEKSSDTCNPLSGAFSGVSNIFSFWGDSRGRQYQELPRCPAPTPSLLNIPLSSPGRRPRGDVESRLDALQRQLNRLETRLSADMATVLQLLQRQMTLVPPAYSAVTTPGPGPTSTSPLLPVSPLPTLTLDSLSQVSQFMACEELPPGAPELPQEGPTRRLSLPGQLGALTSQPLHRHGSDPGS

## N#Cc1ccc(C(c2ccc(C#N)cc2)n2cncn2)cc1 [letrozole]
  IC50: 373 nM
